According to ChEMBL document CHEMBL2177102, “Modulation of DNA repair by pharmacological inhibitors of the PIKK protein kinase family” (Bioorg Med Chem Lett, 2012):
“And” between values parts separate entries of the source, which are not always exact repeats. Equal values may be shown once. Each block holds one compound with its values, some of them ahead of it.

Tests used:
[1] = biological target: DNA-dependent protein kinase catalytic subunit (Mus musculus, UniProt P97313); experiment: Inhibition of DNA-PK in C57BL6 mouse endothelial cells; type: cell-based, Endothelial cell
[2] = biological target: T1, DNA-dependent protein kinase catalytic subunit (Homo sapiens, UniProt P78527); experiment: Inhibition of DNA-PK assessed as inhibition of p53 peptide phosphorylation
[3] = biological target: T1, DNA-dependent protein kinase catalytic subunit; experiment: Competitive inhibition of DNA-PK
[4] = biological target: T1, DNA-dependent protein kinase catalytic subunit; experiment: Inhibition of DNA-PK
[5] = biological target: Serine-protein kinase ATM (Homo sapiens, UniProt Q13315); experiment: Irreversible inhibition of ATM
[6] = Inhibition of PI3K
[7] = biological target: Heat shock protein HSP 90-beta (Homo sapiens, UniProt P08238); experiment: Inhibition of Hsp90
[8] = biological target: Serine/threonine-protein kinase ATR (Homo sapiens, UniProt Q13535); experiment: Inhibition of flag-tagged ATR expressed in HEK293T cells using PHAS-1 as substrate after 20 mins by autoradiography; set-up: species or system HEK-293T
[9] = biological target: T1, DNA-dependent protein kinase catalytic subunit; experiment: Inhibition of DNA-PK in human U1810 cells after 30 mins; type: cell-based

T1 sequence (P78527 whole entry): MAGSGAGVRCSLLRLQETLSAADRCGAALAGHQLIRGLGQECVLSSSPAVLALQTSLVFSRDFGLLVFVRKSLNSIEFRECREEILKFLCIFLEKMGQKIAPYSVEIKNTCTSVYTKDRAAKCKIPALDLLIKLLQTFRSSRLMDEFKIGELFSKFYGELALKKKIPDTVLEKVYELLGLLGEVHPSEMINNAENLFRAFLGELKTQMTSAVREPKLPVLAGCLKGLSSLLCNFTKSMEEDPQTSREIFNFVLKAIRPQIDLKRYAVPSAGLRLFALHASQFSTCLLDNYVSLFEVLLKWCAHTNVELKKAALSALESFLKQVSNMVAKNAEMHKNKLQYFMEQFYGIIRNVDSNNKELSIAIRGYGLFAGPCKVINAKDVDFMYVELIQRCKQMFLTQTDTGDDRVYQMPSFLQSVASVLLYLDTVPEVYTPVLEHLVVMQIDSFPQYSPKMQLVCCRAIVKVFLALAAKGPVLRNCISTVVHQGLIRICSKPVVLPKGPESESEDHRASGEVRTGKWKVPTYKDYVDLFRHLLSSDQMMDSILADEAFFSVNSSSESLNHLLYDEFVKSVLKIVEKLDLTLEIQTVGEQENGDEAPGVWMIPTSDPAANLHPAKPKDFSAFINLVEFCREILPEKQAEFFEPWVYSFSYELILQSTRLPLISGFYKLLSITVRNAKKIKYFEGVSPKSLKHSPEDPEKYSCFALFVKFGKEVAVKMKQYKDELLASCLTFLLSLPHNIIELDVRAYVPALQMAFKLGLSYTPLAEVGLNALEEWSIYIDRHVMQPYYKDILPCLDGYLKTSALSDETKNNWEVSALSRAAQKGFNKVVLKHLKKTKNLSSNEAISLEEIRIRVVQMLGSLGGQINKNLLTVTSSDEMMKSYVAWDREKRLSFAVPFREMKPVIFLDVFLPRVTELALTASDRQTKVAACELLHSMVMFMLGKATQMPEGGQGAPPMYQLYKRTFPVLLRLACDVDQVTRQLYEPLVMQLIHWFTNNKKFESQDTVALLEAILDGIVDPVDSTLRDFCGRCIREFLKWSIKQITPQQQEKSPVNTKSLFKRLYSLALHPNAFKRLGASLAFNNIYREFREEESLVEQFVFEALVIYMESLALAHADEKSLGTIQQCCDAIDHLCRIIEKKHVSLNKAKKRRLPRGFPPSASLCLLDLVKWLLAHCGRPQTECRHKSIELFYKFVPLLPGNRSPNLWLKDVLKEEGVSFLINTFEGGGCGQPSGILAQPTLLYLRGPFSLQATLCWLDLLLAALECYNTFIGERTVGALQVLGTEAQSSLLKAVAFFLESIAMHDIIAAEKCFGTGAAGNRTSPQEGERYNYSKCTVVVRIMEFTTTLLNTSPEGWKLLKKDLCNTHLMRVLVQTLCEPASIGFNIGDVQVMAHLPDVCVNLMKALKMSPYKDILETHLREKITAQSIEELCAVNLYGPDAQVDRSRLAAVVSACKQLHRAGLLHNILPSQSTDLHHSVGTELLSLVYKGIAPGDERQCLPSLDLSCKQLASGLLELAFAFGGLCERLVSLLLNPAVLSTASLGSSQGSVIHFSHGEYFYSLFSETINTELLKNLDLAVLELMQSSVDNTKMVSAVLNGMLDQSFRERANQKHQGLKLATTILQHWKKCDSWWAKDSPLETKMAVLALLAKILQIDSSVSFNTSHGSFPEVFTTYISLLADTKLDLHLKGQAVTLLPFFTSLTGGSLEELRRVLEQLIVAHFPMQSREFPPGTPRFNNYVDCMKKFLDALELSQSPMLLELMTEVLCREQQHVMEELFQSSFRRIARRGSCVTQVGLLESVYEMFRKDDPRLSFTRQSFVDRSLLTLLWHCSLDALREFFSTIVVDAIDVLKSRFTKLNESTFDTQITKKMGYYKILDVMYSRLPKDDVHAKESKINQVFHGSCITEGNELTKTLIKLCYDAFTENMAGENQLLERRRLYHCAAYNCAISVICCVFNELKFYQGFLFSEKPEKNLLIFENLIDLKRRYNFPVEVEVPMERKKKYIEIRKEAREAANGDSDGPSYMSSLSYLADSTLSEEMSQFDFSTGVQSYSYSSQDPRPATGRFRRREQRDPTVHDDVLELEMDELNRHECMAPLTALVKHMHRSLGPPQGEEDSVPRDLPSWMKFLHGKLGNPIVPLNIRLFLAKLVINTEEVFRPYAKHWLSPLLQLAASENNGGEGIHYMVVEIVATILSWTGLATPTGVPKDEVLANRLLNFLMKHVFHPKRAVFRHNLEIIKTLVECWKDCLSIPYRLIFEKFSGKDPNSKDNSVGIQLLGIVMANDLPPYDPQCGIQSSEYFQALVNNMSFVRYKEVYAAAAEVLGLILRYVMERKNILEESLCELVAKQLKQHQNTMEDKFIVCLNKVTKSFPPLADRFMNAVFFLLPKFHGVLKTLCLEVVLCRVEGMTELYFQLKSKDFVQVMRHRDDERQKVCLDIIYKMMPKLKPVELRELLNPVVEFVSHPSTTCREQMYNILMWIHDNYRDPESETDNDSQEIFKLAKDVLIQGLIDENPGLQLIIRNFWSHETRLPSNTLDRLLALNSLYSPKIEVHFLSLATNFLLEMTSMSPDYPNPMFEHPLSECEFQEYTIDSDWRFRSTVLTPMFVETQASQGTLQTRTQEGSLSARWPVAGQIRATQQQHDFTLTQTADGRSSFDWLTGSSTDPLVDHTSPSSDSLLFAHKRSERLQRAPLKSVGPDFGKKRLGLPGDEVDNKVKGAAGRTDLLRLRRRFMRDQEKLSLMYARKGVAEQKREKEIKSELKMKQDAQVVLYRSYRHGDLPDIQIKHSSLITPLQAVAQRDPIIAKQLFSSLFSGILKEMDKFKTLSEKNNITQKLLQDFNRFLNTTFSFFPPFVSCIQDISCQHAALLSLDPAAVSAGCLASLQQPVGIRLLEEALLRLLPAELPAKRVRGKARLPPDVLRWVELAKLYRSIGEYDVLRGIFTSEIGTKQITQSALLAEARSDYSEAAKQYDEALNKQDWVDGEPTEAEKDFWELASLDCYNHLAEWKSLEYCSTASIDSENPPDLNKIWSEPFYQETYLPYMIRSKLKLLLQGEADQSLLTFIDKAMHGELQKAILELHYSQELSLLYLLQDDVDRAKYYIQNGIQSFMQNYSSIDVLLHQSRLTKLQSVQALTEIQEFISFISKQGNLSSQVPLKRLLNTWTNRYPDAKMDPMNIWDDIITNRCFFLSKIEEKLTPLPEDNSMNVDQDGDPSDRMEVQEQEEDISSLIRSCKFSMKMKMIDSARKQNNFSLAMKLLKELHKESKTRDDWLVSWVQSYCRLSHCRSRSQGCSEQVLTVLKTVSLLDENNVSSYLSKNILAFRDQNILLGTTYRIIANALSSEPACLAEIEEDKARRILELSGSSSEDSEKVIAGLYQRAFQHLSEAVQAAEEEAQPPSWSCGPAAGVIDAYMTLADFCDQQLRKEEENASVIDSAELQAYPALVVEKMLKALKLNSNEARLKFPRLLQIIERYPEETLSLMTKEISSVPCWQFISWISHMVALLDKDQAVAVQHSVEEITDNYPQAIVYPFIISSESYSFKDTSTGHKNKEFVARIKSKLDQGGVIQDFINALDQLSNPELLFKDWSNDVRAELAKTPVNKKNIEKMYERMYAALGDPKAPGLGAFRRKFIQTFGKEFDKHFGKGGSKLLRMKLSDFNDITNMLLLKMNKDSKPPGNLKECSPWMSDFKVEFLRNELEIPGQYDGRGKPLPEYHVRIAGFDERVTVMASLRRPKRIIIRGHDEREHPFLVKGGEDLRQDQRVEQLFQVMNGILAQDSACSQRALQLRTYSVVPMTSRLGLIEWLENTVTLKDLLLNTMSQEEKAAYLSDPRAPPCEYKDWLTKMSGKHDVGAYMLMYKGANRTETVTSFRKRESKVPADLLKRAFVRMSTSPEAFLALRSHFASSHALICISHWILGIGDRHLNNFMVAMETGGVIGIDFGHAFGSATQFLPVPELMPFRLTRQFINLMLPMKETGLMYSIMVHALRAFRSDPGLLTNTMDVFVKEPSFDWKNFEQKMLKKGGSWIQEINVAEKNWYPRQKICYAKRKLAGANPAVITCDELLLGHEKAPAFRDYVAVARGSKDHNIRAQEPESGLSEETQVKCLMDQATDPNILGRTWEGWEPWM
Sequence of Heat shock protein HSP 90-beta (P08238 whole entry): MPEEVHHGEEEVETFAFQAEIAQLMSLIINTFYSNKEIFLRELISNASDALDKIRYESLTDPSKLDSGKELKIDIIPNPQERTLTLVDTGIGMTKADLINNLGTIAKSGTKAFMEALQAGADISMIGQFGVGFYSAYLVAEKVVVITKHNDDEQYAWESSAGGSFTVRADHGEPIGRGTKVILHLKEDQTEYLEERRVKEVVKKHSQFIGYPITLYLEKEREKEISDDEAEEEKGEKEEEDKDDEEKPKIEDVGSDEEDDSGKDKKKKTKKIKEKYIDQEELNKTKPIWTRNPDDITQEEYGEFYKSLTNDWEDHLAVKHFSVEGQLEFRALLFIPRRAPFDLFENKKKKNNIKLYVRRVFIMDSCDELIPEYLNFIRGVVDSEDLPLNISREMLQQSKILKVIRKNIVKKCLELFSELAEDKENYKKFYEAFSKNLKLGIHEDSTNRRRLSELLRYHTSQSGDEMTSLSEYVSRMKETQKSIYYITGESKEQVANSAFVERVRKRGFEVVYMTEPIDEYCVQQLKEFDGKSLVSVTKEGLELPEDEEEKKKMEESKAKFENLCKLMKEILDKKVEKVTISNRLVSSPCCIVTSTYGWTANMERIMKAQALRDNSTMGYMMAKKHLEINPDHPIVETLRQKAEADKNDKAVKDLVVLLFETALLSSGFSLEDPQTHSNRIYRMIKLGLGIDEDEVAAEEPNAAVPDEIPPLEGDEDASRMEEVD

IC50 [2]: 15 µM
Structure (SMILES): COc1cc(C=O)c([N+](=O)[O-])cc1OC

IC50 [2]: 30 µM
Structure (SMILES): COc1cc(Br)c(C=O)cc1OC

IC50 [1]: 0.034 µM
Structure (SMILES): O=c1cc(-c2ccccc2)oc2c(-c3ccccc3)c(N3CCOCC3)cc(O)c12

IC50 [4]: 1.2 µM and 2.5 µM
Structure (SMILES): Cc1ccc2c(sc3ccccc32)c1-c1cccc2c(=O)cc(N3CCOCC3)oc12

IC50 [5]: 0.6 µM
Structure (SMILES): C=C1C(=O)OC[C@@H]1C(=O)N1Cc2cc3ccccc3nc2C1

IC50 [4]: 6.1 µM | IC50 [6]: > 500 µM | EC50 [7]: 4 µM
Structure (SMILES): CO[C@@H]1/C=C/C=C(\C)C(=O)NC2=CC(=O)C(NCCCCCCOc3ccc4c(=O)cc(N5CCOCC5)oc4c3)=C(C[C@@H](C)C[C@@H](OC)[C@@H](O)[C@H](C)/C=C(\C)[C@H]1OC(N)=O)C2=O (stereo in doubt)

IC50 [8]: 7.3 µM
Structure (SMILES): COc1cc2c(c(OC)c1OC)-c1c(cc3c(c1OC)OCO3)CC(C)C(C)C2 (stereo not drawn) [SCHISANDRIN B]

The remaining lines, values behind:

Structure (SMILES): CC(=O)c1ccc(N2CCOCC2)cc1O
IC50 [1]: 0.12 µM

Structure (SMILES): Nc1ncc(-c2ccccc2)nc1C(=O)Nc1ccccc1
IC50 [3]: 0.62 µM

Structure (SMILES): CS(=O)(=O)c1ccc(-c2cnc(N)c(C(=O)Nc3ccccc3)n2)cc1
IC50 [4]: 0.026 µM

Structure (SMILES): CC(CN(C)C)S(=O)(=O)c1ccc(-c2cnc(N)c(C(=O)Nc3ccccc3)n2)cc1 (stereo not drawn)
Ki [4]: 0.006 µM

Structure (SMILES): CCc1[nH]c(/C=C2\C(=O)Nc3ccc(S(=O)(=O)Nc4ccccc4)cc32)c(CC)c1CCC(=O)O
IC50 [3]: 0.13 µM

Structure (SMILES): C=C1C(=O)OCC1(C(=O)OCC)C(=O)OCC
IC50 [5]: 0.25 µM

Structure (SMILES): N#Cc1cc(-c2ccncc2)c(/C=N/N)nc1O
IC50 [3]: 8 µM

Structure (SMILES): CN1CCN(CCCN2c3ccccc3Sc3ccc(C(F)(F)F)cc32)CC1 [TRIFLUOPERAZINE]
IC50 [9]: 100 µM

Structure (SMILES): COc1cc(C=O)ccc1O [VANILLIN]
IC50 [2]: 1500 µM
